Columns and labels:
HDAC6 and related genes = assay: qRT-PCR of mRNA level of HDAC6 and related genes; assay type: cell-based, human; conditions: 6 h treatment
Excerpt: To support the involvement of ubiquitination-proteasome system for the decrease of HDAC6 protein level, the degrader was co-treated with binding competitors or pathway blockers. […] Moreover, it also confirmed the role of the pomalidomide moiety in modulating IKZFs. […] Additionally, proteasome inhibitor MG132 and Bortezomib were used to block the down-stream proteasome degradation. […] Acetylated tubulin level was suppressed as well. This confirms that HDAC6 degradation is responsible for the acetylation of its substrates rather than inhibition by the “warhead” moiety. To exclude the possible transcriptional impact by degraders, qRT-PCR was used to examine the mRNA level of HDAC6 and related genes (data not shown). […] This is consistent with the hypothesis that the cellular knockdown of HDAC6 is due to direct protein degradation, not by transcriptional downregulation.
After treatment, cells were harvested and washed with cold PBS twice. […] The concentration of RNA was measured by Plate Reader. […] Ct value at automatically selected threshold was reported and calculated by 2^−ΔΔCt method. (Livak, K. J.; Schmittgen, T. D. “Analysis of Relative Gene Expression Data Using Real-Time Quantitative PCR and the 2 C T Method” METHODS 2001, 25, 402-408. The bar graph was generated and by GraphPad Prism.

HDAC6 = biological target: T1, HDAC6 (Mus musculus, UniProt Q9Z2V5); assay: In-cell ELISA of HDAC6 in mice immortalized cell line 4935; assay type: cell-based; conditions: mice immortalized cell line 4935, in-cell ELISA
T1 construct: endogenous in cells; host or cells: mouse immortalized cell line 4935
T1 sequence (Q9Z2V5 1-1149): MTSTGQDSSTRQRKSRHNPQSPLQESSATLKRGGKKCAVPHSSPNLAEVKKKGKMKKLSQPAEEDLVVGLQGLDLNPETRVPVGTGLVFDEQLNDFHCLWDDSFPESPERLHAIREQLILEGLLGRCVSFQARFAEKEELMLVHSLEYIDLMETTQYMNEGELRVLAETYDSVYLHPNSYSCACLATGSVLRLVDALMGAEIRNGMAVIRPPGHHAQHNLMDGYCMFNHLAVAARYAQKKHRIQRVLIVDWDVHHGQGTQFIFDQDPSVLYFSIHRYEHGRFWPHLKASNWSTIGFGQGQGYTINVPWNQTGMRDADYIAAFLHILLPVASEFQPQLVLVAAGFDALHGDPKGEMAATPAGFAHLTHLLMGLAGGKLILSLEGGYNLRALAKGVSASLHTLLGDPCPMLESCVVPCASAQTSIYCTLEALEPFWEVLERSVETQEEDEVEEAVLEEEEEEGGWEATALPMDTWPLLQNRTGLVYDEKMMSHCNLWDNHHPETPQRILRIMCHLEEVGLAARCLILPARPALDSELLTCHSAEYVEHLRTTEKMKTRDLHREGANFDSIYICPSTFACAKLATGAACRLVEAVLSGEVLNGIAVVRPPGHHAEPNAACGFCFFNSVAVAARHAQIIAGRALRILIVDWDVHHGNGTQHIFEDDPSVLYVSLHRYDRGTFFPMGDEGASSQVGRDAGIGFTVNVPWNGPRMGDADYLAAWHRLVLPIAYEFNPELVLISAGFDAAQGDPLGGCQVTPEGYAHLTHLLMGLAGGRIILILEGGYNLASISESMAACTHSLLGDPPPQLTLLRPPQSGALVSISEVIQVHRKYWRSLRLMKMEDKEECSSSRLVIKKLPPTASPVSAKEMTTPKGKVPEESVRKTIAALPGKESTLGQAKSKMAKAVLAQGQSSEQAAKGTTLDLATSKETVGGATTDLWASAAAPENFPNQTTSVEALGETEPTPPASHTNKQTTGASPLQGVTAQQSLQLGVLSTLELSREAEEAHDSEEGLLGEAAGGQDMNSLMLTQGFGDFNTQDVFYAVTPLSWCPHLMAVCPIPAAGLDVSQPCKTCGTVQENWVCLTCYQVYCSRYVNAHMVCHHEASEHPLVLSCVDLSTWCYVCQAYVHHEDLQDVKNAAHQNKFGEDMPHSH
Protocol: FIG. 19 is a dose-response curve for HDAC6 expression as a function of concentration for compounds 2 and 3j from Part 2 of the Example section.
The degradation efficiency of HDAC6 induced by 2 and 3j in mice immortalized cell line 4935 was also tested using western blot and in-cell ELISA. In concentrations ranging from 10 nM to 10 μM, VHL-based degrader 3j induced more HDAC6 degradation and tubulin acetylation than CRBN-based degrader 2 (data not shown). […] The maximal degradation percentage for HDAC6 induced by 3j is 56.8%, which is better than 45.3% of Dmax induced by compound 2. […] The VHL E3 ligase-based degrader 3j may have advantages over CRBN-based degrader 2 in animal studies using mice as the model system.

Compound	effect on mRNA level of HDACs and IKZFs (HDAC6 and related genes)	DC50 (HDAC6) [µM]	Dmax (HDAC6; read-out: maximal degradation percentage for HDAC6 (Dmax)) [%]
CCCCN(Cc1ccc(C(=O)NO)cc1)C(=O)Nc1ccc(OCCCCCn2cc(CNc3cccc4c3C(=O)N(C3CCC(=O)NC3=O)C4=O)nn2)cc1 (stereo not drawn) [Compound 12d, 4-((1-butyl-3-(4-((5-(4-(((2-(2,6-dioxopiperidin-3-yl)-1,3-dioxoisoindolin-4-yl)amino)methyl)-1H-1,2,3-triazol-1-yl)pentyl)oxy)phenyl)ureido)methyl)-N-hydroxybenzamide]	Little to no effects	–	–
CCCCN(Cc1ccc(C(=O)NO)cc1)C(=O)Nc1ccc(OCCCCCn2cc(CNc3cccc4c3C(=O)N(C3CCC(=O)NC3=O)C4=O)nn2)cc1 (stereo not drawn) [Compound 2]	–	~0.017	45.3

From patent US11059815B2, “Synthesis of small molecule histone deacetylase 6 degraders, compounds formed thereby, and pharmaceutical compositions containing them” (Wisconsin Alumni Research Foundation, priority 2018, dated 2021)
